Data: the NIST ThermoML archive (doi:10.1016/j.jct.2017.02.009)

Assay: xn = mol fraction of the nth substance listed
Settings: 100 kPa, Liquid; for mass density: Vibrating tube method; for viscosity: Capillary tube (Ostwald / Ubbelohde) method

O=C1CCCO1 [γ-butyrolactone] + C[S+](C)[O-]
Settings	mass density, 293.15 K [kg/m3]	mass density, 298.15 K [kg/m3]	mass density, 303.15 K [kg/m3]	mass density, 313.15 K [kg/m3]	viscosity, 298.15 K [mPa·s]
x2 = 0	1129.4	1124.5	1119.6	1109.8	1.72
x2 = 0.051	1127.5	1122.6	1117.7	1107.9	–
x2 = 0.098	1125.9	1121	1116.1	1106.3	1.724
x2 = 0.152	1124	1119.1	1114.2	1104.4	–
x2 = 0.221	1121.7	1116.8	1111.9	1102.1	1.724
x2 = 0.251	1120.7	1115.7	1110.8	1101	–
x2 = 0.298	1119.1	1114.2	1109.3	1099.5	1.724
x2 = 0.352	1117.4	1112.5	1107.6	1097.8	–
x2 = 0.398	1116	1111	1106.1	1096.3	1.739
x2 = 0.447	1114.5	1109.6	1104.7	1094.8	–
x2 = 0.498	1113	1108	1103.1	1093.3	1.763
x2 = 0.546	1111.6	1106.6	1101.7	1091.9	–
x2 = 0.596	1110.2	1105.2	1100.3	1090.4	1.791
x2 = 0.648	1108.7	1103.8	1098.8	1089	–
x2 = 0.7	1107.4	1102.4	1097.4	1087.6	1.839
x2 = 0.742	1106.3	1101.3	1096.4	1086.4	–
x2 = 0.797	1104.9	1099.9	1094.9	1085	1.883
x2 = 0.848	1103.6	1098.7	1093.7	1083.7	–
x2 = 0.9	1102.4	1097.4	1092.4	1082.5	1.921
x2 = 0.95	1101.3	1096.3	1091.3	1081.3	–
